Measurements as given in PubChem BioAssay (NCI).
Several values for one entry are separate records, joined by “and”; a condition that tells them apart may be missing. Equal entries are not always repeated.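 In this assay, cells in 96-well plates receive the compound at five concentrations for 48 hours. Endpoints are linearly interpolated between the surrounding concentrations. GI50 marks 50% less growth. Definition used: TGI = concentration required for complete inhibition of growth.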

Assays:
Assay in all cases: NCI anticancer screen, dose series, 48 h
DU-145 prostate = test system: DU-145 prostate
NCI/ADR-RES ovarian = test system: NCI/ADR-RES ovarian
MDA-MB-435 = test system: MDA-MB-435
MDA-MB-231 breast = test system: MDA-MB-231 breast
HOP-18 NSCLC = test system: HOP-18 NSCLC
SNB-78 CNS = test system: SNB-78 CNS
DLD-1 colon = test system: DLD-1 colon
M19-MEL melanoma = test system: M19-MEL melanoma
DMS 273 small cell lung = test system: DMS 273 small cell lung

SMILES	GI50 (DU-145 prostate)	TGI (DU-145 prostate) [µM]	GI50 (NCI/ADR-RES ovarian) [µM]	TGI (NCI/ADR-RES ovarian) [µM]	GI50 (MDA-MB-435) [nM]	TGI (MDA-MB-435) [µM]	GI50 (MDA-MB-231 breast)	TGI (MDA-MB-231 breast) [µM]	TGI (HOP-18 NSCLC) [µM]	TGI (SNB-78 CNS) [µM]	TGI (DLD-1 colon) [µM]	TGI (M19-MEL melanoma) [µM]	TGI (DMS 273 small cell lung) [µM]	GI50 (HOP-18 NSCLC) [µM]	GI50 (DLD-1 colon) [µM]	GI50 (M19-MEL melanoma) [µM]	GI50 (SNB-78 CNS) [µM]	GI50 (DMS 273 small cell lung) [µM]
COc1cc(C2CC(c3cc(Cl)c(C)cc3O)=NN2c2ccc(S(N)(=O)=O)cc2)cc(OC)c1OC (stereo not drawn)	3.4 µM	11.2	2.58	7.53	2570	8.47	2.09 µM	5.01										
NC(=O)COc1ccc(Br)cc1Br									> 100	> 100	> 100	> 100	> 100					
Cc1c(-c2ccnc(N)n2)c2c(n1-c1ccccc1)C(=O)c1ccccc1C2=O	21.1 µM	60.7	15.8	66.8	25200	67.3	19.7 µM	63.3										
NS(=O)(=O)c1ccc(N=Nc2cc3ccccc3c(C(=O)O)c2O)cc1		> 100		> 100		> 100		97										
Cn1ccnc1C(=O)/C=C/c1ccc(CC(=O)Nc2cc(F)c(F)c(F)c2)cc1	1.67 µM	4.87	1.09	> 25	3360	10.4	4.04 µM	> 25										
Nc1ccc(Sc2ccc3c4c2cccc4c(=O)n2c4ccccc4nc32)cc1	3.8 µM	14.1	5.95	62.8	12600	82.2	5.31 µM	30										
C/C(=C\COc1ccc2ccc(=O)oc2c1)CCC(=O)C(C)(C)O		> 100		> 100		59.2		> 100										
COc1ccc(OC)c(/C=C/C(=O)c2ccc(SC)cc2)c1	4.37 µM	18.3	3.28	11.8	2090	8.91	54 µM	> 100										
COc1ccc2c(c1)/C(=N/OC(C)=O)c1c-2c(Nc2ccc(/C(C)=N/OC(C)=O)cc2)nc2ccccc12	43.2 µM	> 100	33	> 100	86200	> 100	> 100 µM	> 100										
CN1CCN(Cc2ccc(NC(=O)c3cncc(C#Cc4cncc5[nH]ncc45)c3)cc2C(F)(F)F)CC1	1.36 µM	6.45	4.09	11.3	556	5.33	0.23 µM	1.04										
O=C(Nc1ccc(I)cc1F)c1cc(F)ccc1O	0.655 µM	> 100	0.401	> 27.7	512	4.45	0.513 µM	4.69										
c1ccc(-c2nn(-c3ccccc3)[n+](-c3ccccc3-c3ccccc3)n2)cc1	3.11 µM	> 71.7	> 78.7	> 100	461	2.82	0.235 µM	9.21										
COc1cc2cc(Oc3ccc(NC(=O)Nc4cc(C(F)(F)F)cc(C(F)(F)F)c4)cc3)c(C)nc2cc1OCCN1CCCCC1	1.71 µM	3.08	1.68	3.24	1780	3.22	1.52 µM	2.99										
O=C(CN1CCN(c2cc3c(cc2F)c(=O)c(C(=O)O)cn3C2CC2)CC1)Nc1ccc(C(=O)/C=C/c2ccccc2)cc1	3.74 µM	> 100	9.75	> 100	2940	> 100	1.84 µM	5.13										
Fc1ccc(-c2ncn(C3CCNCC3)c2-c2ccnc(Oc3ccc(Oc4ccccc4)cc3)n2)cc1	4.2 µM	7.75	3.48	7.04	3920	8.46	3.71 µM	7.17										
COc1ccc(C(=O)C(CN(C)C)c2ccccc2)cc1 (stereo not drawn)			2.7	6.97	2830	11.4	5.41 µM	17.4										
CCN(Cc1cccc(C)c1)c1ccc(CO)c(Cl)c1	14.8 µM	28.9	11.3	24.5	15700	32.1	14.1 µM	30.8										
COC(=O)C([O][Ge]([CH3])([CH3])[CH3])c1ccccc1 (stereo not drawn)									> 100		> 100	> 100		> 100	> 100	> 100		
COc1ccc(C2C3=C(COC3=O)N(CCO)c3cc4c(cc32)CCC4)cc1OC (stereo not drawn)	0.574 µM	2.13	2.52	> 36.4	132	0.448	2.52 µM	> 50										
CC(=O)OC1CC2C(C)(C)C(=O)C=C[C@]2(C)C2CCC3(C)C(=CCC3[C@H](CO)C[C@H](O)C(=O)C(C)(C)O)[C@]12C (stereo partly drawn)									> 100	> 100	30.3	97.3	> 100					
C=C(C)[C@@H]1CC[C@@H]2C(=CC[C@]3(C)C([C@H](C)CC/C=C(/C)C(=O)O)CC[C@@]23C)[C@@]1(C)CCC(=O)O (stereo partly drawn)		60.5				89.7		60.2										
CCOC(=O)Nc1ccc2nc(Sc3ccc(Cl)cc3)sc2c1	4.33 µM	> 48.5	1.07	47.3	222	0.561	4.47 µM	34										
Clc1ccc2c(NCCNc3nc(Cl)nc4ccccc34)ccnc2c1	1.26 µM	2.59	2.5	7.24	1470	2.95	0.36 µM	1.21										
O=C(N/N=C\c1cc(Br)cc(Br)c1O)N/N=C/c1cc(Br)cc(Br)c1O	4.63 µM	15.5	3.16	16	2670	17.8	4.18 µM	17.5										
COc1ccccc1NC(=O)NS(=O)(=O)c1ccccc1									> 100	> 100	> 100	> 100	> 100					
CCN(CC)Cc1cc(Nc2c3ccc(Cl)cc3nc3c(C)cccc23)ccc1O	2.3 µM	6.99	1.08	3.02	1750	3.14	1.83 µM	3.81										

SMILES	GI50 (DU-145 prostate)	TGI (DU-145 prostate) [µM]	GI50 (NCI/ADR-RES ovarian) [µM]	TGI (NCI/ADR-RES ovarian) [µM]	GI50 (MDA-MB-435) [nM]	TGI (MDA-MB-435) [µM]	GI50 (MDA-MB-231 breast)	TGI (MDA-MB-231 breast) [µM]	TGI (HOP-18 NSCLC) [µM]	TGI (SNB-78 CNS) [µM]	TGI (DLD-1 colon) [µM]	TGI (M19-MEL melanoma) [µM]	TGI (DMS 273 small cell lung) [µM]	GI50 (HOP-18 NSCLC) [µM]	GI50 (DLD-1 colon) [µM]	GI50 (M19-MEL melanoma) [µM]	GI50 (SNB-78 CNS) [µM]	GI50 (DMS 273 small cell lung) [µM]
Cc1cccc(Cc2cnc(NC(=O)/C=C/c3ccco3)s2)c1	0.0382 µM	> 100	0.0364	> 100			0.0771 µM	> 73.1										
COC(=O)CCCCCCCCC(=O)c1c(C)[nH]c(/C=C2\N=C(c3ccc[nH]3)C=C2OC)c1C	32.1 µM	> 100	24.2	> 100	3920	> 100	7.83 µM	> 100										
NC(=S)c1cn(C2OC(CO)C(O)C2O)c2ncnc(N)c12 (stereo not drawn)	0.217 µM	5.44	0.192	8.24	63.3	0.262	0.152 µM	> 100										
COC(=O)C1=C(C)NC(C)=C(C(=O)OC)C1c1ccccc1[N+](=O)[O-]	> 100 µM	> 100	49.3	> 100	> 100000	> 100	70.7 µM	> 100										
O=C1/C(=C/c2ccccc2)CN(C(=O)Oc2ccccc2)C/C1=C\c1ccccc1									> 100	53.1		> 100	> 100					
CCc1cc2c(c3[nH]ccc13)[C@@H](C)C[C@H]2C									37.2	34.6	36.3	32.2	32.7					
Cc1cccc2c1C(=O)OC2(c1cccc2ccccc12)c1cccc2ccccc12									> 100		> 100	> 100	> 100					
O=C(O)c1ccccc1/C=C1/Nc2ccccc2C1=O		> 100		> 100		> 100		> 100										
S=C1NC2=C(CCOc3c2ccc2ccccc32)C(c2ccc(Cl)cc2)N1 (stereo not drawn)	27.9 µM	> 100	31.9	> 100	41500	> 100	10.6 µM	67.6										
Nc1cc2ccncc2c2ccccc12	13.2 µM	> 100	8.7	> 100	17200	60	16.4 µM	96.1										
CCOC(=O)CCC(NC(=O)c1ccc(Nc2nc3cc(N)cc(N)c3nc2-c2ccccc2)cc1)C(=O)OCC (stereo not drawn)	65.8 µM	> 100	35	> 79.1	29900	> 60.4	16.5 µM	> 53.2										
COC(=O)C12CC(NC(=O)c3csc([C@@H](C[C@H](C(C)C)N(C)C(=O)[C@@H](NC(=O)[C@H]4CCCCN4C)C(C)C)OC(C)=O)n3)(C1)C2	0.00165 µM and 0.00333 µM	> 33.3	0.147	> 33.3	0.165	0.00169	0.00434 µM and 0.00333 µM											
CCN(CC)CCn1nc2c3c(cccc3c1=O)-c1ccccc1-2	2.11 µM	> 50	2.19	45.1	2960	10.5	4.92 µM	19.4										
CCN(CC)c1ccc(/C=C2/NC(=O)NC2=O)cc1	5.7 µM	32.6	1.93	12.2	420	3.53	28.7 µM	> 100										
O=C(O)CSc1nnc(COc2ccccc2)n1-c1ccccc1										> 100	> 100	> 100	> 100					
CC[C@@]1(O)C(=O)N(CCN(C)C)Cc2c1cc1n(c2=O)Cc2cc3ccccc3nc2-1	4.64 µM	> 100	13.7	> 94.8	> 100000	> 100	> 100 µM	> 100										
CC(=O)O[C@H]1Cc2c([nH]c3ccccc23)[C@@H](c2ccc(Cl)cc2)N1C(=O)CCNC(C)(C)C	4.01 µM	8.45	5.57	12.2	4680	9.06	1.79 µM	6.07										
CC(=O)[O-].CC(=O)[O-].CC(=O)[O-].CC(=O)[O-].CO.CO.CO.[Rh+2].[Rh+2].c1ccc(-c2ccccn2)nc1										> 100	> 100	> 100	> 100		> 100	> 100	> 100	> 100
CCc1cc(Nc2nccc(-c3c(-c4ccc(OC)c(C(=O)Nc5c(F)cccc5F)c4)nc4ccccn34)n2)c(OC)cc1N1CCC(N2CCN(S(C)(=O)=O)CC2)CC1	> 100 µM	> 100	> 100	> 100	> 100000	> 100	44.3 µM	> 100										
O=C(c1nc2ccccc2[nH]1)C1C(c2cccc([N+](=O)[O-])c2)C2CC3CCCCC3N2[C@@]12C(=O)Nc1cc(Cl)ccc12 (stereo partly drawn)	1.55 µM	3.26	2.51	8.18	1650	3.19	1.49 µM	3.17										
c1ccc2c(Nc3ccc4c(c3)OCO4)c3ccoc3nc2c1	14 µM	31.2	7.66	75.5	3970	14.4												
CCn1c(-c2nonc2N)nc2c(C#CC(C)(C)O)ncc(OCC3CCNCC3)c21	8.15 µM	> 25	12.8	> 25	13700	> 25	> 25 µM	> 25										
N#CCCCCCn1c2ccccc2c2c3c(c4c5ccccc5[nH]c4c21)C(=O)N(O)C3=O	1.06 µM	12.2	5.52	> 100	1190	3.09	1.78 µM	5.32										
Cc1cncc2cccc(S(=O)(=O)N3CCCNC[C@@H]3C)c12	36.1 µM	> 100	25.4	> 100	> 100000	> 100	14.1 µM	74.2										
C=C1C(=O)O[C@H]2[C@H]1CC/C(COC(=O)c1ccc(Br)cc1)=C\CC[C@@]1(C)O[C@@H]21	1.35 µM	2.65	2.34	8.68	1790	3.5	1.73 µM	3.51										
